GI50 and TGI data for eight compounds are collected here from PubChem BioAssay (NCI).

The structures appear in SMILES notation. “And” between values parts separate entries of the source, which are not always exact repeats. Equal entries are not always repeated.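 Five concentrations, 48 hours, 96-well plates. Abbreviation: GI50, concentration required for 50% inhibition of growth. The concentration for full growth arrest is given as TGI.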 Where only a bound is given, the exact number is not on record here.

Test systems include NCI-H23 lung; HCT-15 colon; LOX IMVI melanoma; RXF 393 renal; SK-MEL-5 melanoma; BT-549 breast; NCI-H226 lung; SF-268 CNS; HOP-92 NSCLC; NCI-H460 lung.
Common to all, as to test: NCI anticancer screen, dose series, 48 h

On to `c1ccc(CN2CCC3(CC2)ONC2=NCCN23)cc1`, for which the GI50 is 54.9 µM in the experiment on NCI-H23 lung; 46.8 µM in the experiment on HCT-15 colon; 21.7 µM in the experiment on LOX IMVI melanoma; 88.1 µM in the experiment on RXF 393 renal; 72 µM with SK-MEL-5 melanoma; more than 100 µM in the experiment with BT-549 breast. Moreover, the GI50 with NCI-H226 lung was 86.8 µM; in the experiment with SF-268 CNS, 89.8 µM; with HOP-92 NSCLC, 29.3 µM; with NCI-H460 lung it was 86.5 µM. The TGI was more than 100 µM in the experiment on NCI-H23 lung; more than 100 µM in the experiment on HCT-15 colon; 55.5 µM with LOX IMVI melanoma; more than 100 µM in the experiment with RXF 393 renal; more than 100 µM in the experiment on SK-MEL-5 melanoma; more than 100 µM in the experiment with BT-549 breast. In addition, the TGI is more than 100 µM in the experiment on NCI-H226 lung, more than 100 µM in the experiment on SF-268 CNS, 59.1 µM in the experiment on HOP-92 NSCLC and more than 100 µM in the experiment with NCI-H460 lung.
For the compound `CC(C)(C)c1ccc(NC(=O)c2cc(=O)c3ccccc3[nH]2)c(C(C)(C)C)c1O`, the GI50 was 3.33 µM in the experiment with NCI-H23 lung; 4.32 µM in the experiment on HCT-15 colon; 3.22 µM in the experiment on LOX IMVI melanoma; 2.31 µM in the experiment with RXF 393 renal; 6.51 µM in the experiment on SK-MEL-5 melanoma; 6.77 µM in the experiment on BT-549 breast. For the same compound, the GI50 in the experiment on NCI-H226 lung was 13.6 µM; in the experiment with SF-268 CNS it was 7.48 µM; in the experiment on HOP-92 NSCLC, 2.88 µM; in the experiment with NCI-H460 lung, 3.72 µM. The TGI is 14.1 µM with NCI-H23 lung; 15.5 µM in the experiment with HCT-15 colon; 13.1 µM in the experiment with LOX IMVI melanoma; 5.16 µM with RXF 393 renal; 19 µM in the experiment on SK-MEL-5 melanoma; 19.9 µM with BT-549 breast. The TGI with NCI-H226 lung was 28.9 µM; in the experiment on SF-268 CNS, 22.4 µM; with HOP-92 NSCLC, 12.8 µM; with NCI-H460 lung, 13.9 µM.
As to `COc1cc2c(cc1OCCN1C(=O)c3cccc4cccc(c34)C1=O)N=C[C@@H]1CCCN1C2=O`, the GI50 in the experiment on NCI-H23 lung was 16.8 µM; with HCT-15 colon it was 18.6 µM; in the experiment on RXF 393 renal it was 20.9 µM; in the experiment with SK-MEL-5 melanoma, 13.1 µM; with HOP-92 NSCLC, 19.5 µM; with NCI-H460 lung, 15.5 µM. The TGI in the experiment on NCI-H23 lung is 20.2 µM and 32.3 µM; with HCT-15 colon it was 21.4 µM and 40.2 µM; in the experiment on LOX IMVI melanoma it was 12.3 µM; with RXF 393 renal it was 15 µM and 36.3 µM; in the experiment on SK-MEL-5 melanoma, 15.5 µM and 28.2 µM; in the experiment with BT-549 breast, 16.9 µM. Also, the TGI with NCI-H226 lung is 32.4 µM; with SF-268 CNS it was 15.3 µM; with HOP-92 NSCLC, 17.3 µM and 55.4 µM; with NCI-H460 lung, 13.9 µM and 29.9 µM.
In the case of `COc1ccc(/C=C2/CCOC2=O)cc1`, the GI50 in the experiment with NCI-H23 lung, in the experiment with HCT-15 colon, in the experiment with LOX IMVI melanoma, in the experiment with RXF 393 renal, in the experiment on SK-MEL-5 melanoma and in the experiment on BT-549 breast was more than 100 µM throughout. The GI50 in the experiment on NCI-H226 lung, in the experiment with SF-268 CNS, in the experiment with HOP-92 NSCLC and in the experiment on NCI-H460 lung was more than 100 µM in each case. Further, the TGI in the experiment with NCI-H23 lung, with HCT-15 colon, in the experiment with LOX IMVI melanoma, in the experiment with RXF 393 renal, in the experiment with SK-MEL-5 melanoma and in the experiment on BT-549 breast was more than 100 µM each time. Besides, the TGI in the experiment with NCI-H226 lung, with SF-268 CNS, in the experiment on HOP-92 NSCLC and in the experiment with NCI-H460 lung was more than 100 µM each time.
Consider `Cc1ccc2nc(NC(=O)CSC(=S)N3CCN(Cc4ccccc4)CC3)sc2c1`, for which the GI50 in the experiment on NCI-H23 lung was more than 100 µM; with HCT-15 colon it was more than 100 µM; with RXF 393 renal, more than 100 µM; in the experiment with SK-MEL-5 melanoma, 56 µM; in the experiment on BT-549 breast, more than 100 µM; in the experiment on NCI-H226 lung, more than 100 µM. The GI50 in the experiment with SF-268 CNS was more than 100 µM; in the experiment with HOP-92 NSCLC it was 4.05 µM; in the experiment with NCI-H460 lung it was more than 100 µM. The TGI in the experiment on NCI-H23 lung was more than 100 µM; in the experiment with HCT-15 colon, more than 100 µM; in the experiment on LOX IMVI melanoma, more than 21 µM; in the experiment with RXF 393 renal it was more than 100 µM; in the experiment on SK-MEL-5 melanoma, more than 100 µM; in the experiment on BT-549 breast, more than 100 µM. In addition, the TGI with NCI-H226 lung, in the experiment with SF-268 CNS, in the experiment with HOP-92 NSCLC and in the experiment with NCI-H460 lung was more than 100 µM in each case.
For `CN(C)c1ccc2c(SCC(=O)OCC(=O)[C@@]3(O)CC[C@H]4[C@@H]5CCC6=CC(=O)C=C[C@]6(C)[C@H]5C(=O)C[C@@]43C)c3ccc(N(C)C)cc3nc2c1`, the TGI in the experiment with NCI-H23 lung is 64.9 µM; in the experiment with HCT-15 colon, 32.1 µM; with LOX IMVI melanoma, more than 100 µM; with RXF 393 renal it was more than 57 µM; with SK-MEL-5 melanoma, more than 100 µM; in the experiment with BT-549 breast it was more than 49.5 µM. Moreover, the TGI in the experiment with NCI-H226 lung is 47.5 µM; in the experiment with SF-268 CNS, more than 100 µM; in the experiment with HOP-92 NSCLC, more than 64.6 µM; in the experiment on NCI-H460 lung, more than 45.7 µM.
As to `Cc1cc(C)c(S(=O)(=O)Oc2ccccc2[N+](=O)[O-])c(C)c1`, the GI50 was 4.69 µM in the experiment on NCI-H23 lung; 1.37 µM in the experiment with HCT-15 colon; 3.33 µM in the experiment on LOX IMVI melanoma; 2.48 µM in the experiment on RXF 393 renal; 2 µM in the experiment with SK-MEL-5 melanoma; 3.19 µM in the experiment on BT-549 breast. In addition, the GI50 with NCI-H226 lung is 10.6 µM; in the experiment with SF-268 CNS it was 4.57 µM; in the experiment on HOP-92 NSCLC it was 1.98 µM; in the experiment with NCI-H460 lung it was 2.4 µM. The TGI was more than 100 µM with NCI-H23 lung; more than 100 µM in the experiment with HCT-15 colon; more than 100 µM in the experiment with LOX IMVI melanoma; 7.83 µM in the experiment with RXF 393 renal; 7.8 µM in the experiment on SK-MEL-5 melanoma; more than 100 µM in the experiment on BT-549 breast. The TGI with NCI-H226 lung is more than 100 µM; in the experiment with SF-268 CNS, more than 100 µM; in the experiment on HOP-92 NSCLC, 25.4 µM; in the experiment with NCI-H460 lung it was more than 100 µM.
In the case of `O=C1c2ccccc2C(=O)c2c1c(NCCNCCO)c1cc[nH]c1c2NCCNCCO`, the GI50 with NCI-H23 lung was 7.9 µM; with HCT-15 colon, more than 70.9 µM; in the experiment with LOX IMVI melanoma it was 1.53 µM; in the experiment with RXF 393 renal it was 2.59 µM; in the experiment with SK-MEL-5 melanoma, 3.17 µM; in the experiment with BT-549 breast it was 2.75 µM. Also, the GI50 with NCI-H226 lung was 1.78 µM; in the experiment with SF-268 CNS, 0.935 µM; with HOP-92 NSCLC it was 3.06 µM; in the experiment on NCI-H460 lung, 7.78 µM. In addition, the TGI in the experiment on NCI-H23 lung is more than 27.9 µM; in the experiment with HCT-15 colon it was more than 100 µM; in the experiment with LOX IMVI melanoma it was more than 100 µM; in the experiment on RXF 393 renal, 13.2 µM; in the experiment with SK-MEL-5 melanoma, 16.4 µM; in the experiment on BT-549 breast, 8.94 µM. Moreover, the TGI in the experiment on NCI-H226 lung was 13.5 µM; in the experiment with SF-268 CNS, 5.28 µM; in the experiment on HOP-92 NSCLC, 16.5 µM; in the experiment with NCI-H460 lung it was more than 60.1 µM.
